Tested on: Lepeophtheirus salmonis
Experiment: Duration of efficacy: medicated feed, then sea lice infestation of Atlantic salmon at 8 or 17 DPT (Example 2)
Format: in vivo
Conditions: for percent efficacy for total sea lice, across counts: cohort infested at 8 DPT
Procedure: A randomized, blinded, parallel-group, negative-controlled study was conducted in which, the active ingredient was administered to Atlantic salmon at three dose rate (0 mg/kg/day, 0.025 mg/kg/day, and 0.060 mg/kg/day administered in medicated feed for 7 consecutive days. Following the treatment, the fish were intentionally infested with sea lice either 8 or 17 DPT, all within a controlled laboratory environment with seawater. The evaluation of efficacy for each cohort occurred at three specific timepoints post-infestation by comparing lice counts between the groups that received treatment and the untreated control groups.
Healthy Atlantic salmon post-smolts (n=1080) were selected for enrollment and distributed sequentially across eighteen (18) study tanks. Fish were weighed individually during the allocation of fish to tanks on study day (SD) −55&−56. Fish were weighed again on SD −19 to estimate the average weight of all fish and used to determine the feeding amount during the treatment period (SD 0−+6). The mean weight of fish prior to treatment was 716.1±152.5 g. Fish in the cohort infested 8 DPT were additionally weighed on SD +8, +14, +27, +35, +41 and +48. Fish in the cohort infested 17 DPT were additionally weighed on SD +8, +23, +36, +44, +50, and +57. For both cohorts SD 0 served as the first day of treatment.
Atlantic salmon post-smolts at each infestation time (8 or 17 DPT) were infested once with about 100 copepodids (Lepeophtheirus salmonis) per fish. During the study the water temperature varied between 9 and 13° C., and the water oxygen saturation was above 80%.
Three treatment groups were randomly assigned to eighteen study tanks by blocking the paired tank rows for the 8 and 17 DPT exposure. Study personnel were blinded as to the identity of the treatments for each tank.
Sea lice were counted three times during the study. […] The counts were strategically scheduled to ensure the presence of life stages, including chalimus, pre-adult, and adult stages, in at least one of the three counts within the negative control treatment. At all timepoints 10 fish were euthanized and lice counted.
Medicated feed was prepared by dry coating commercially available fish feed pellets with a premix containing the active ingredient to reach a content of about 4.2 and 10.0 mg/kg. The fish pellets were then coated with feed grade herring fish oil at an inclusion rate of about 0.75% w/w (7.5 g/kg feed) The consumption rate of the medicated feed was set to 0.6% body weight.
For the cohort infested at 8 DPT and the cohort infested at 17 DPT, treatment efficacy was computed for total number of sea lice/fish and total number of mobile life stages, i.e., preadult & adult sea lice/fish for each sea lice counting occasion (Count I, II & III). For the total number of attached/fish, treatment efficacy was computed at Count I only. Percent efficacy was computed using Abbott's formula for each treatment group compared to control as follows: percent efficacy=100*(MC−MT)/MC, where MC and MT are the arithmetic means of sea lice counts in the untreated control and S-roxapin-treated groups, respectively.
Treatments were considered efficacious when the percent efficacy was ≥90% for treated groups compared to untreated control groups. The mean sea lice abundance was reported for different parasite life stages (attached, mobile, and total (attached and mobile together)) and computed as the number of lice on salmon divided by the number of sampled fish per tank. The attached category included chalimus I & II stages. The mobile category included pre-adult and adult life stages of both males and females. The numbers of mobile, attached, and total lice were considered in this study.

[1] = 0.025 mg/kg/day in feed 7 d, infested 8 DPT, Count I (21DPI)
[2] = 0.025 mg/kg/day in feed 7 d, infested 8 DPT, Count III (34 DPI)
[3] = 0.025 mg/kg/day in feed 7 d, infested 17 DPT, Count I (21DPI)
[4] = 0.025 mg/kg/day in feed 7 d, infested 17 DPT, Count III (34 DPI)
[5] = 0.060 mg/kg/day in feed 7 d, infested 8 DPT, Count I (21DPI)
[6] = 0.060 mg/kg/day in feed 7 d, infested 8 DPT, Count III (34 DPI)
[7] = 0.060 mg/kg/day in feed 7 d, infested 17 DPT, Count I (21DPI)
[8] = 0.060 mg/kg/day in feed 7 d, infested 17 DPT, Count III (34 DPI)

## C#CCNC(=O)CNC(=O)c1sc(C2=NO[C@@](c3cc(Cl)c(Cl)c(Cl)c3)(C(F)(F)F)C2)cc1C [S-roxapin, (S)-3-methyl-N-(2-oxo-2-(prop-2-yn-1-ylamino)ethyl)-5-(5-(3,4,5-trichlorophenyl)-5-(trifluoromethyl)-4,5-dihydroisoxazol-3-yl)thiophene-2-carboxamide]
[1]
  Number of Attached Lice/Fish % Efficacy: 92.5%
  Number of Attached Lice/Fish Mean ± SD: 1.6 ± 2.0 lice/fish
  Number of Mobile Lice/Fish % Efficacy: 87.2%
  Number of Mobile Lice/Fish Mean ± SD: 1.0 ± 1.3 lice/fish
  Total Number of Lice/Fish % Efficacy: 91.1%
  Total Number of Lice/Fish Mean ± SD: 2.6 ± 2.9 lice/fish
[2]
  Number of Attached Lice/Fish Mean ± SD: 0.0 ± 0.0 lice/fish
  Number of Mobile Lice/Fish % Efficacy: 91.8%
  Number of Mobile Lice/Fish Mean ± SD: 2.5 ± 2.8 lice/fish
  Total Number of Lice/Fish % Efficacy: 91.8%
  Total Number of Lice/Fish Mean ± SD: 2.5 ± 2.8 lice/fish
[3]
  Number of Attached Lice/Fish % Efficacy: 21.2%
  Number of Attached Lice/Fish Mean ± SD: 2.7 ± 1.9 lice/fish
  Number of Mobile Lice/Fish % Efficacy: −10.1%
  Number of Mobile Lice/Fish Mean ± SD: 24.4 ± 8.8 lice/fish
  Total Number of Lice/Fish % Efficacy: −5.9%
  Total Number of Lice/Fish Mean ± SD: 27.1 ± 9.0 lice/fish
[4]
  Number of Attached Lice/Fish Mean ± SD: 0.0 ± 0.0 lice/fish
  Number of Mobile Lice/Fish % Efficacy: −16.2%
  Number of Mobile Lice/Fish Mean ± SD: 32.1 ± 12.1 lice/fish
  Total Number of Lice/Fish % Efficacy: −16.0%
  Total Number of Lice/Fish Mean ± SD: 32.1 ± 12.1 lice/fish
0.025 mg/kg/day
  percent efficacy for total sea lice, across counts: above 86.8%
0.025 mg/kg/day, cohort infested at 17 DPT
  efficacy for mobile lice: no efficacy
0.025 mg/kg/day, cohort infested at 17 DPT (printed: in DOE14)
  efficacy for total sea lice: No efficacy
[5]
  Number of Attached Lice/Fish % Efficacy: 99.8%
  Number of Attached Lice/Fish Mean ± SD: 0.0 ± 0.2 lice/fish
  Number of Mobile Lice/Fish % Efficacy: 99.6%
  Number of Mobile Lice/Fish Mean ± SD: 0.0 ± 0.2 lice/fish
  Total Number of Lice/Fish % Efficacy: 99.8%
  Total Number of Lice/Fish Mean ± SD: 0.1 ± 0.3 lice/fish
[6]
  Number of Attached Lice/Fish Mean ± SD: 0.0 ± 0.0 lice/fish
  Number of Mobile Lice/Fish % Efficacy: 100%
  Number of Mobile Lice/Fish Mean ± SD: 0.0 ± 0.0 lice/fish
  Total Number of Lice/Fish % Efficacy: 100%
  Total Number of Lice/Fish Mean ± SD: 0.0 ± 0.0 lice/fish
[7]
  Number of Attached Lice/Fish % Efficacy: 46.2%
  Number of Attached Lice/Fish Mean ± SD: 1.9 ± 1.6 lice/fish
  Number of Mobile Lice/Fish % Efficacy: 18.5%
  Number of Mobile Lice/Fish Mean ± SD: 18.0 ± 6.1 lice/fish
  Total Number of Lice/Fish % Efficacy: 22.3%
  Total Number of Lice/Fish Mean ± SD: 19.9 ± 6.1 lice/fish
[8]
  Number of Attached Lice/Fish Mean ± SD: 0.0 ± 0.0 lice/fish
  Number of Mobile Lice/Fish % Efficacy: 23.0%
  Number of Mobile Lice/Fish Mean ± SD: 21.3 ± 9.0 lice/fish
  Total Number of Lice/Fish % Efficacy: 23.1%
  Total Number of Lice/Fish Mean ± SD: 21.3 ± 9.0 lice/fish
0.060 mg/kg/day
  percent efficacy for total sea lice, across counts: above 99.2%

Source: patent US12280040B2, “Compositions and methods of a dihydroisoxazole compound that reduces ectoparasite infestations on fish” (EVAH Atlantic Inc., priority 2023, dated 2025)
